Experimental data as given in patent publication US20100240652A1, “Pyridine Derivatives as Sodium Channel Modulators” (Pfizer Inc, priority 2006, published 2010).

Each compound was assayed against T1, Human NaV1.8 (Homo sapiens, UniProt Q9Y5Y9) (assay: VIPR assay for NaV1.8 compounds (FRET membrane potential)). Details: Human NaV1.8 HEK293 expressing cell line, channels held open with deltamethrin.
T1 construct: expressed in transfected cells
Format: cell-based
Description: The ability of the pyridine derivatives of the formula (I) to inhibit the NaV1.8 channel may be measured using the assay described below.
VIPR Assay for NaV1.8 compounds
This screen is used to determine the effects of compounds on tetrodotoxin-resistant (TTX-R) sodium channels in Human NaV1.8— (HEK293) expressing cell line, utilising the technology of Aurora's fluorescent Voltage/Ion Probe Reader (VIPR). This experiment is based on FRET (Fluorescence Resonance Energy Transfer) and uses two fluorescent molecules. The first molecule, Oxonol (DiSBAC2(3)), is a highly fluorescent, negatively charged, hydrophobic ion that “senses” the trans-membrane electrical potential. In response to changes in membrane potential, it can rapidly redistribute between two binding sites on opposite sides of the plasma membrane. The voltage dependent redistribution is transduced into a ratiometric fluorescent readout via a second fluorescent molecule (Coumarin (CC2-DMPE)) that binds specifically to one face of the plasma membrane and functions as a FRET partner to the mobile voltage-sensing ion. To enable the assay to work, the channels have to be pharmacologically held in the open state. This is achieved by treating the cells with either deltamethrin (for NaV1.8) or veratridine (for the SHSY-5Y assay for TTX-S channels).
Human NaV1.8 cells are grown in T225 flasks, in a 5% CO2 humidified incubator to about 70% confluence. Media composition consists of DMEM/F-12, 10% FCS and 300 μg/ml Geneticine. They are split using cell dissociation fluid 1:5 to 1:20, depending on scheduling needs, and grown for 3-4 days before the next split.
Plate-out HEK-NaV1.8 cells (100 μl per well) into poly-D-lysine coated plates prior to experimentation as follows:—24 hours @ 3.5×10^4 cells/well (3.5×10^5 cells/ml) or using the technology of Select.
1. Equilibrate buffers at room temperature for 2 hours or at 37° C. for 30 minutes prior to experimentation. 2. Prepare Coumarin dye (see below) and store in dark. Prime the plate washer with Na^+ Free buffer and wash cells twice, Note: Plate washer deposits ˜30 μl residual buffer per well. Add 100 μL Coumarin (CC2-DMPE) solution (see below) to cells and incubate for 45 minutes at room temperature avoiding bright light. 3. Prepare Oxonol (DiSBAC2(3)) dye (see below): 4. Aspirate off Coumarin solution from the cells by washing in Na^+ Free buffer. 5. Add 30 μl compound then add 30 μl Oxonol solution to the cells and incubate for 45 minutes at room temperature in the dark (total well volume ˜90 μl). 6. Once the incubation is complete, the cells are ready to be assayed using the VIPR for sodium addback membrane potential.
The data was analyzed and reported as normalised ratios of intensities measured in the 460 nm and 580 nm channels. The process of calculating these ratios was performed as follows. An additional plate contained control solution with the same DisBAC2(3) concentrations as used in the cell plates, however no cells were included in the background plate. Intensity values at each wavelength were averaged for sample points 5-7 (initial) and 44-49 (final). These averages were subtracted from intensity values averaged over the same time periods in all assay wells. The initial ratio obtained from samples 3-8 (Ri) and the final ratio obtained from samples 45-50 (Rf) are defined as: […]
Final data are normalised to the starting ratio of each well and reported as Rf/Ri. This analysis is performed using a computerised specific programme designed for VIPR generated data. Rf/Ri ratio values are plotted using Excel Labstats (curve fit) or analysed via ECADA to determine an IC50 value for each compound.

T1 sequence (Q9Y5Y9 whole entry): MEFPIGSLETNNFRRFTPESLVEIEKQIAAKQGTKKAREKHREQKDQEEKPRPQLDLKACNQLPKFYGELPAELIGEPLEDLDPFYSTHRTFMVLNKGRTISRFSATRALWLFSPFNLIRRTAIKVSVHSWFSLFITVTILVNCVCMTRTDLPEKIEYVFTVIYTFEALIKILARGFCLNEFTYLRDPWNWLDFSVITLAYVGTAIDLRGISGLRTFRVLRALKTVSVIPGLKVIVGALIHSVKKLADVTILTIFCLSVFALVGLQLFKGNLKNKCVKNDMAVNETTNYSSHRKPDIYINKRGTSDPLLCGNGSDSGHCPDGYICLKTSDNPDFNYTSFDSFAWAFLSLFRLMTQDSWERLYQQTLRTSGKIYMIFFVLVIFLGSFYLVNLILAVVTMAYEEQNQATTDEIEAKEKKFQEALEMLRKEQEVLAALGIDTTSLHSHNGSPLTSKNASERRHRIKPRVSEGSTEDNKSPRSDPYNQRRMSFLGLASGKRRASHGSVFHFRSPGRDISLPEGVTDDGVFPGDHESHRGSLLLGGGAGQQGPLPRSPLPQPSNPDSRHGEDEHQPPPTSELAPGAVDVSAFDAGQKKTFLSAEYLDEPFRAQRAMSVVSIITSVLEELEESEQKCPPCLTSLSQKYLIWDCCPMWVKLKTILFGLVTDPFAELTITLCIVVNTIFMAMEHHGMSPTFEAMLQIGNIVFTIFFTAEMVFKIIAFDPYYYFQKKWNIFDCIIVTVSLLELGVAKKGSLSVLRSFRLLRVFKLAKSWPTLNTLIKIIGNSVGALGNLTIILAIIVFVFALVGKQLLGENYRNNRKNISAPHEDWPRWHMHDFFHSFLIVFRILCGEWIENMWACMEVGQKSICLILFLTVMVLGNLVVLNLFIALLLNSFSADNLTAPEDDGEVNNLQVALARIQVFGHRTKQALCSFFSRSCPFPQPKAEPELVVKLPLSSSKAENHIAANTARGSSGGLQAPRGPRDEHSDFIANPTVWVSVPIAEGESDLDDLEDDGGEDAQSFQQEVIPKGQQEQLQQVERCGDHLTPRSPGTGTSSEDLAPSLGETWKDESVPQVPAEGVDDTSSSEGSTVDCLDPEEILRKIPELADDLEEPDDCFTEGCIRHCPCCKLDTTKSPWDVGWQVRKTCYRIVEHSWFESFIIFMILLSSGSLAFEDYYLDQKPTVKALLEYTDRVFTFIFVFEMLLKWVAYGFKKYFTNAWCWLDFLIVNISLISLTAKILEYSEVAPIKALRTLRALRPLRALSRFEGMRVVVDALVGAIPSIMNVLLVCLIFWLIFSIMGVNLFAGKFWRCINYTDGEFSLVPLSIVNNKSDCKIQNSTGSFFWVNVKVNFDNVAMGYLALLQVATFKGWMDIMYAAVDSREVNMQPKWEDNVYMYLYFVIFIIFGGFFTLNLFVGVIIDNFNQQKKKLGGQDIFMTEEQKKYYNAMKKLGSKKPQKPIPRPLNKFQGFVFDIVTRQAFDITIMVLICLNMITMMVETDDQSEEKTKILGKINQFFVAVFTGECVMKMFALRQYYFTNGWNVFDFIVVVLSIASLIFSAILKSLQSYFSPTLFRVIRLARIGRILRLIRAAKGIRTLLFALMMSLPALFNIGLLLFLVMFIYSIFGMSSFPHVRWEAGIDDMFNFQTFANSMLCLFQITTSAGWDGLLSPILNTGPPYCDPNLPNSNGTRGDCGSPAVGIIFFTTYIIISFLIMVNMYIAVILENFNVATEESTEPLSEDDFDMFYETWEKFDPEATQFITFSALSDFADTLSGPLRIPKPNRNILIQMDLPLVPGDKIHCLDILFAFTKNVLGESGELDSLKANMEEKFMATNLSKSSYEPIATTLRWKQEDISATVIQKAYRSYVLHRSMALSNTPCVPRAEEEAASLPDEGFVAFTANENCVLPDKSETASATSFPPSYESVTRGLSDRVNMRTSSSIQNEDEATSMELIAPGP

Row | SMILES | IC50 [nM]
1 | CNC(=S)c1ccc(-c2cc(Cl)cc(Cl)c2Cl)c(N)n1 [Example 1, 6-Amino-5-(2,3,5-trichloro-phenyl)-pyridine-2-carbothioic acid methylamide] | 2930
2 | C/N=C(/c1ccc(-c2cc(Cl)cc(Cl)c2Cl)c(N)n1)N1CCOCC1 [Example 4, 6-(Methylimino-morpholin-4-yl-methyl)-3-(2,3,5-trichloro-phenyl)-pyridin-2-ylamine] | 4580
3 | CC/N=C(\NCC)c1ccc(-c2cc(Cl)cc(Cl)c2Cl)c(N)n1 [Example 5, 6-Amino-N,N′-diethyl-5-(2,3,5-trichloro-phenyl)-pyridine-2-carboxamidine] | 2940

Compounds with a lower IC50, results first:

Row | IC50 [nM] | SMILES
4 | 2400 | CNC(=N)c1ccc(-c2cc(Cl)cc(Cl)c2Cl)c(N)n1 [Example 7, 6-Amino-N-methyl-5-(2,3,5-trichloro-phenyl)-pyridine-2-carboxamidine]
5 | 1820 | C/N=C(\NC)c1ccc(-c2cc(Cl)cc(Cl)c2Cl)c(N)n1 [Example 3, 6-Amino-N,N′-dimethyl-5-(2,3,5-trichloro-phenyl)-pyridine-2-carboxamidine]
6 | 1630 | CN/C(=N\C#N)c1ccc(-c2cc(Cl)cc(Cl)c2Cl)c(N)n1 [Example 2, 6-Amino-N′-cyano-N-methyl-5-(2,3,5-trichlorophenyl)pyridine-2-carboximidamide]
7 | 1330 | C/N=C(\NCC(F)(F)F)c1ccc(-c2cc(Cl)cc(Cl)c2Cl)c(N)n1 [Example 6, 6-Amino-N-methyl-5-(2,3,5-trichloro-phenyl)-N′-(2,2,2-trifluoro-ethyl)-pyridine-2-carboxamidine]
